Values quoted from earlier work in patent US6506938B1, “Process for the purifying of iopamidol” (Bracco International B.V., priority 1993, dated 2003).
Where two headings read alike, the source gives them in different places.

Assays:
[1] = British patent no. 1,472,050
[2] = Boll. Chim. Farm., 120, 639, (1981)

## C[C@H](O)C(=O)Nc1c(I)c(C(=O)NC(CO)CO)c(I)c(C(=O)NC(CO)CO)c1I [Iopamidol, L-5-α-hydroxypropionylamino-2,4,6-triiodo-isophthalic acid bis-(1,3-dihydroxyisopropylamide)]
[1]; ethanol, room temperature
  solubility in ethanol: about 10%
[1]; methanol
  solubility in methanol: practically unlimited solubility
[1]; water
  solubility in water: dissolves very easily
[2]; benzene
  solubility in benzene: practically insoluble
[2]; chloroform
  solubility in chloroform: practically insoluble
[2]; diethylether
  solubility in diethylether: practically insoluble
[2]; ethanol
  solubility in ethanol: practically insoluble
[2]; methanol
  solubility in methanol: only slightly soluble
[2]; water
  solubility in water: very soluble
